87 compounds from PubChem BioAssay AID1645848 can be followed below.

In brackets after ≈: the same amount, converted by molar mass. Non-standard residues stand in square brackets, D forms with d. Residues, ends and D or L forms follow the SMILES beside them. ξ: configuration not given here. ξLac(3-iPr) = CC(C)CC(O)C(=O)O; NMeV = CN[CH](C(=O)O)C(C)C; NMeA = CN[CH](C)C(=O)O; βAla = NCCC(=O)O

For the data set the following is noted: buffer; pH 7.4; 6.0 h; 150.0 µM.

In general, kinetic solubility refers to solubility judged after dilution from a stock solution rather than from solid. Consider `O=C(O)c1ccccc1C(=O)Nc1ccc(-c2ccccc2)cc1`, for which the solubility (kinetic) is greater than 47 µg/mL. With `COc1cccc(CNc2ccc(S(=O)(=O)Nc3nc4ccccc4o3)cc2)c1O`, the solubility (kinetic) was greater than 63 µg/mL.

The compound `O=C1CCc2ccc(OCCCCN3CCN(c4cccc(Cl)c4Cl)CC3)cc2N1` had a kinetic solubility of less than 1 µg/mL. On to `CCOc1ccc(CCNC(=O)c2cc3ccncc3n2Cc2cccc(C)n2)cc1OCC`, for which the solubility (kinetic) was greater than 68 µg/mL.

As to `Cc1ccc(S(=O)(=O)Nc2cnccc2C(=O)Nc2ccc(-c3nc4ccccc4[nH]3)cc2)cc1`, the solubility (kinetic) is less than 1 µg/mL. `N[C@@H](Cc1cc(Br)c(O)c(Br)c1)C(=O)O` displayed a solubility (kinetic) greater than 50 µg/mL. The result for `COC(=O)c1cc2occc2n1Cc1nc(-c2ccc(C)cc2)oc1C` reads less than 1 µg/mL. The result for `O=C(Cn1ccn2nc3c(c2c1=O)CCCCC3)Nc1ccc2c(c1)OCO2` reads less than 1 µg/mL; that for `COc1ccnc(NC(=S)N2CCN(c3ccc(Cl)c(Cl)c3)CC2)c1`, 3.16 µg/mL (≈ 7.96 µM); that for `O=C(c1ccccc1)N1CCN(c2nc(-c3ccc(Br)cc3)cs2)CC1`, less than 1 µg/mL.

`COc1ccc(NC(=O)c2[nH]c(C)c(C(C)=O)c2C)cc1[S+](=O)([O-])Nc1ccccc1C#N` yielded a kinetic solubility of 55.6 µg/mL (≈ 119 µM). `Cc1ccc(-c2cc(C(=O)O)c3ccccc3n2)cc1` came in with a kinetic solubility greater than 39 µg/mL.

`CN(C)c1cccc(-c2nccc(N3CCC(C(N)=O)CC3)n2)c1`: the solubility (kinetic) was greater than 48 µg/mL. The result for `Cc1cccc(-c2[nH]c(C(C)(C)C)nc2-c2ccc3nccnc3c2)n1` reads greater than 51 µg/mL; that for `Cn1cc(Br)c(C2N=C(Nc3nc4ccccc4o3)NC3=C2C(=O)CCC3)n1` (configuration not stated), 24.7 µg/mL (≈ 56.1 µM); that for `CCOC(=O)c1c[nH]c2c3c(ccc2c1=O)CCCC3`, 34 µg/mL (≈ 125 µM). The result for `Fc1cc(Nc2nc(-c3ccncc3)nc3ccccc23)ccc1-c1ccncc1` reads less than 1 µg/mL. Compound `CCC(=O)NC(c1cccs1)c1cc([N+](=O)[O-])c2cccnc2c1O` (configuration not stated) had a kinetic solubility greater than 53 µg/mL. Take `Cc1cc(C)nc(NC(=S)N2CCN(Cc3cccc(C(F)(F)F)c3)CC2)c1`: the kinetic solubility is 35.9 µg/mL (≈ 87.8 µM). As to `CCN(CC)C(=O)c1ccc2c(c1)ncn2-c1cccc(C)c1`, the kinetic solubility was greater than 45 µg/mL.

For the compound `COc1cccc(CNc2ccc([S+](=O)([O-])Nc3ccccc3)cc2)c1Cl`, the kinetic solubility is less than 1 µg/mL. The result for `O=C(NCCCCc1ccccc1)C1CCN(c2nc(-c3ccc(Br)cc3)cs2)CC1` reads 7.06 µg/mL (≈ 14.2 µM); that for `Cc1ccc(NC(=O)c2cc(-c3ccc[nH]3)n[nH]2)cc1F`, greater than 28 µg/mL. With `COc1cccc(-c2nc(-c3c(C)noc3C)cc3[nH]c(C)cc23)c1OC` the figure was 20.4 µg/mL (≈ 56.2 µM); with `COc1cccc(CNc2ccc(S(=O)(=O)Nc3nccs3)cc2)c1`, 27.2 µg/mL (≈ 72.5 µM). With `CSc1nc(N)cc(Oc2ccc(-c3nc(Nc4cccc(C(F)(F)F)c4)n[nH]3)cc2)n1`, the solubility (kinetic) was less than 1 µg/mL.

For `C=CCc1cccc(CNc2ccc(S(=O)(=O)Nc3nccs3)cc2)c1O`, the solubility (kinetic) was 23.1 µg/mL (≈ 57.5 µM). The compound `COc1cc2c(cc1Oc1cccc(N(C)C)c1)NC(=O)C21CCN(c2cnccn2)CC1` showed a kinetic solubility of 2.21 µg/mL (≈ 4.97 µM). The result for `CCOC(=O)c1ccc(NC2CCCCC2)c(N)c1` reads 31 µg/mL (≈ 118 µM); that for `Cc1ccc(S(=O)(=O)Nc2cnccc2C(=O)Nc2nc(-c3ccc(Oc4ccccc4)cc3)cs2)cc1`, 0.918 µg/mL (≈ 1.69 µM); that for `CCC(C)C1NC(=O)C2CCCN2C(=O)C(CC(C)C)OC(=O)CCNC(=O)C(C)N(C)C(=O)C(C(C)C)N(C)C1=O` (configuration not stated) (cyclo([ξLac(3-iPr)]PI[NMeV][NMeA][βAla]); configuration not given here), 2.68 µg/mL (≈ 4.52 µM). The result for `NC(=O)C1CCN(c2nc(-c3ccc(Cl)cc3)cs2)CC1` reads 1.52 µg/mL (≈ 4.72 µM). The result for `CN1CCN(C(=O)Cc2c[nH]c3ncc(-c4ccccc4Oc4ccccc4)cc23)CC1` reads greater than 42 µg/mL; that for `O=C1Nc2cccc(Cl)c2/C1=C\c1cc(Cl)c(O)c(Cl)c1`, less than 1 µg/mL; that for `Clc1cccc(Nc2nc(-c3ccncc3)nc3ccccc23)c1`, less than 1 µg/mL. In turn, `COc1ccc(CCN2CCC(Nc3nc4ccccc4n3Cc3ccc(F)cc3)CC2)cc1` came in with a kinetic solubility of 54.6 µg/mL (≈ 119 µM). For `Cn1cc(Cl)c(C2N=C(Nc3nc4ccccc4o3)NC3=C2C(=O)CCC3)n1` (configuration not stated), the kinetic solubility came to 36.4 µg/mL (≈ 91.7 µM). `CN(C)c1cc(-c2nc(Nc3ccc(F)c(F)c3)c3ccccc3n2)ccn1` gave a solubility (kinetic) of less than 1 µg/mL. `Cc1ccc(S(=O)(=O)Nc2cnccc2C(=O)Nc2nc(-c3ccc(F)cc3)cs2)cc1` came in with a kinetic solubility of less than 1 µg/mL.

As for `O=C(COc1ccccc1)NCC(c1cccs1)S(=O)(=O)c1ccc(Cl)cc1` (configuration not stated), the solubility (kinetic) came out at 3.83 µg/mL (≈ 8.79 µM). The result for `CN(C)C(=O)c1ccc(-c2cc[nH]c(=O)c2N)cc1` reads greater than 38 µg/mL; that for `COc1ccc(-n2nc(C3CCCN(C(=O)c4ccc(C)cc4)C3)[nH]c2=O)cc1` (configuration not stated), 39.4 µg/mL (≈ 100 µM); that for `Cn1c(CN2CCCCC2)nc2cc(NC(=O)c3cccc(Br)c3)ccc21`, greater than 63 µg/mL. With `O=S(=O)(Nc1nccs1)c1ccc(NCc2cccc3cc[nH]c23)cc1` the figure was 20.5 µg/mL (≈ 53.2 µM); with `Cc1ccc(S(=O)(=O)Nc2ccccc2C(=O)Nc2ccc(-c3ccccc3)nc2)cc1`, less than 1 µg/mL. Turning to `COc1ccc(NC(=O)c2[nH]c(C)cc2C)cc1S(=O)(=O)Nc1ccc(Br)cc1`, the kinetic solubility is less than 1 µg/mL. As for `Cc1c(Cl)cccc1-n1ncc(C(=O)Nc2ccc(Br)cc2F)c1C1CCNCC1`, the solubility (kinetic) was greater than 72 µg/mL. With `Cc1ccc(NC(=O)N2CCN(c3nc(N)nc4sc(-c5cccnc5)nc34)CC2)cc1` the figure was less than 1 µg/mL. With `CCCCN(CC)CCCNC(=O)c1ccc2c(c1)N(Cc1ccc(C)cc1)C(=O)c1ccccc1S2` the figure was greater than 76 µg/mL; with `Cc1noc(C)c1-c1csc(N2CCC(C(N)=O)CC2)n1`, greater than 45 µg/mL; with `CS(=O)(=O)c1ccc2nc(NC(=O)C3CC3)sc2c1`, 22.7 µg/mL (≈ 76.7 µM). `COC(=O)c1ccc(NS(=O)(=O)c2c(C)nc3sccn3c2=O)cc1` returned a kinetic solubility greater than 56 µg/mL. The result for `COc1ccc(CNC(=O)c2cnc3ccccc3n2)cc1` reads 36.1 µg/mL (≈ 123 µM); that for `C#CC1(O)CCC2C3CCC4=C/C(=N/OCC(=O)NCC(=O)NC(C(=O)O)C(C)C)CC[C@]4(C)C3CC[C@@]21C` (some centres not stated), greater than 80 µg/mL. The result for `Fc1ccc(Nc2ccnc(-c3ccncc3)n2)cc1F` reads 1.22 µg/mL (≈ 4.27 µM); that for `CC(C)C(=O)N1CCc2ccc(OCc3nc(C(=O)N4CCCC4)co3)cc2C1c1cccc(F)c1` (configuration not stated), 32.9 µg/mL (≈ 66.9 µM); that for `CCOc1ccc(CCNC(=O)c2ccnn2Cc2ccccn2)cc1OCC`, greater than 58 µg/mL. Compound `Cc1cc(C)c(C(=O)Nc2cccc([S+](=O)([O-])N3CCCC3)c2)[nH]1` had a solubility (kinetic) of 11.5 µg/mL (≈ 33.1 µM).

`COc1ccc(CCN2C(=O)N(c3ccc(F)cc3)C(=O)C2CC(=O)Nc2ccc(F)c(F)c2)cc1` (configuration not stated) registered a solubility (kinetic) of 9.71 µg/mL (≈ 19.5 µM). `COc1cccc(C(=O)Nc2ccc3c(N4CCOCC4)ncnc3c2)c1` came in with a kinetic solubility greater than 54 µg/mL. With `CN1C(=O)C(=O)N2C(=C[C@]3(c4c[nH]c5ccccc45)c4ccccc4N[C@H]23)C1=O` the figure was less than 1 µg/mL; with `CCN1CCN(CC(=O)Nc2ccc(-c3cccc4c(=O)cc(N5CCOCC5)oc34)c3sc4ccccc4c23)CC1`, 63.6 µg/mL (≈ 109 µM).

The compound `COc1ccc(C2Nc3ccccc3C(=O)N2Cc2cccnc2)cc1COc1c(C)cc(NC(C)=O)cc1C` (configuration not stated) gave a solubility (kinetic) of 1.69 µg/mL (≈ 3.16 µM). The result for `Cc1ccc2c(c1)/C(=C\c1cc(Cl)c(O)c(Cl)c1)C(=O)N2` reads 15.4 µg/mL (≈ 48.1 µM); that for `O=C1Nc2ccccc2/C1=C\c1cc(F)c(O)c(F)c1`, greater than 40 µg/mL; that for `O=C1Nc2ccccc2/C1=C/c1cc(Cl)c(O)c(Cl)c1`, greater than 45 µg/mL. With `O=S(=O)(c1ccccc1)c1nc(-c2ccc(F)cc2)oc1N1CCCCCC1` the figure was less than 1 µg/mL; with `O=C(Nc1ccc(N2CCN(C(=O)c3ccccc3F)CC2)cc1)c1cncc(Br)c1`, 3.75 µg/mL (≈ 7.77 µM); with `CC(=O)c1c(C)[nH]c(C(=O)Nc2cccc(S(=O)(=O)N3CCCCC3)c2)c1C`, 4.57 µg/mL (≈ 11.3 µM). With `Cc1cccc(Nc2nc(NCc3ccco3)c3ccccc3n2)c1.Cl` the figure was less than 1 µg/mL; with `CC(=O)N1CCC(NC(=O)c2nc(-c3ccccc3)cc3[nH]ccc23)CC1`, greater than 80 µg/mL. The compound `Cc1cccc(S(=O)(=O)c2cn(Cc3ccccc3)c3cc(N4CCCCC4C)c(F)cc3c2=O)c1` (configuration not stated) returned a solubility (kinetic) of less than 1 µg/mL. `CC(C)CCNC(=O)[C@H](CC(C)C)NC(=O)[C@H]1O[C@@H]1C(=O)O` gave a kinetic solubility of 33 µg/mL (≈ 105 µM).

Compound `Cc1ccccc1C(=O)N1CCc2cc(-c3nc(NC(=O)c4ccc5c(c4)OCO5)sc3C)ccc21` showed a solubility (kinetic) of less than 1 µg/mL. `O=S(=O)(Nc1cccc2ccncc12)c1ccc(NCc2cccc(Cl)c2O)cc1` showed a kinetic solubility of 4.67 µg/mL (≈ 10.6 µM). With `COc1ccc(CCNC(=O)Cn2c(=O)c3cccn3c3ccc(F)cc32)cc1OC` the figure was 6.63 µg/mL (≈ 15.7 µM). On to `CCCOC(c1cc2nccc(C(=O)O)c2[nH]1)c1ccccc1Cl` (configuration not stated), for which the solubility (kinetic) was greater than 51 µg/mL. In the case of `COc1cccc(CNC(=O)c2c(OC)cc(=O)n3c2CCN(C(=O)c2ccc(C)cc2C)CC3)c1`, the solubility (kinetic) is greater than 72 µg/mL.

The compound `O=C(Nc1ccc(S(=O)(=O)Nc2nccs2)cc1)c1ccncc1` returned a kinetic solubility of 19.5 µg/mL (≈ 54.1 µM). The result for `CC[C@@H](C)Nc1cc(C(=O)NC2CC3CCC(C2)N3c2ccc(C(=O)C3CC3)cn2)c(C)cc1C(N)=O` (some centres not stated) reads less than 1 µg/mL. Regarding `CSc1nnc2c3ccccc3n(CCc3ccccc3)c2n1`, the solubility (kinetic) was less than 1 µg/mL. With `Cc1ccc(C2=CSC(NC(=O)CSc3nncn3C)=NN2)cc1` the figure was greater than 53 µg/mL; with `C[S+](=O)([O-])c1ccc(-c2nc(C(=O)NCc3cccnc3)n3ccccc23)cc1`, 11.4 µg/mL (≈ 27.9 µM). With `CCCS(=O)(=O)c1nc(NC2CC2)cc(-c2ccc3c(ccn3C3CC(C)(C)NC(C)(C)C3)c2)n1` the figure was less than 1 µg/mL; with `Cc1ccc(NC(=O)c2cc(S(=O)(=O)NCCC3=CCCCC3)ccc2F)cc1F`, less than 1 µg/mL. The result for `O=S(=O)(Nc1nc2ccccc2s1)c1ccc(NCc2ccc(Br)cc2O)cc1` reads 4.87 µg/mL (≈ 9.92 µM); that for `OC1(CN2CCN(c3ccc(F)c(Cl)c3)CC2)CCCNC1` (configuration not stated), greater than 48 µg/mL.
